Data: ChEMBL document CHEMBL1201862, “PubChem BioAssay data set” (2004)
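Compound exposure: 48 hours, 5 concentrations, 96-well plates. GI50 is the concentration that inhibits growth by half.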 Calls of active or inactive are those of the source. Rule as the data show it: active = GI50 up to about 1.1 µM and inactive = higher.

Tests used:
Experiment in all cases: NCI anticancer screen, dose series, 48 h
SK-MEL-2 = system: SK-MEL-2
SR = system: SR
OVCAR-8 = system: OVCAR-8
HCC 2998 = system: HCC 2998
Malme-3M = system: Malme-3M
SNB-78 = system: SNB-78
M14 = system: M14
UACC-257 = system: UACC-257
U-251 = system: U-251
NCI-H460 = system: NCI-H460
OVCAR-4 = system: OVCAR-4
SW-620 = system: SW-620
SNB-19 = system: SNB-19
HOP-18 = system: HOP-18
SK-OV-3 = system: SK-OV-3
UACC-62 = system: UACC-62
DLD-1 = system: DLD-1
MOLT-4 = system: MOLT-4
SK-MEL-28 = system: SK-MEL-28
HL-60 = system: HL-60
DMS-114 = system: DMS-114
COLO 205 = system: COLO 205
HT-29 = system: HT-29
OVCAR-3 = system: OVCAR-3
SF-295 = system: SF-295
SNB-75 = system: SNB-75
IGROV-1 = system: IGROV-1
SK-MEL-5 = system: SK-MEL-5
LOX IMVI = system: LOX IMVI
SF-539 = system: SF-539
A498 = system: A498
786-0 = system: 786-0
CCRF-CEM = system: CCRF-CEM
EKVX = system: EKVX
K562 = system: K562
XF498 = system: XF498
A549 = system: A549
UO-31 = system: UO-31
CAKI-1 = system: CAKI-1
RXF 393 = system: RXF 393
M19-MEL = system: M19-MEL
HCT-15 = system: HCT-15
LXFL 529 = system: LXFL 529
SF-268 = system: SF-268
TK-10 = system: TK-10
SN12C = system: SN12C
KM12 = system: KM12
KM-20L2 = system: KM-20L2
RPMI-8226 = system: RPMI-8226
OVCAR-5 = system: OVCAR-5
HOP-92 = system: HOP-92
NCI-H226 = system: NCI-H226
DMS-273 = system: DMS-273
ACHN = system: ACHN
NCI-H23 = system: NCI-H23
RXF 631 = system: RXF 631
HCT-116 = system: HCT-116
NCI-H522 = system: NCI-H522
HOP-62 = system: HOP-62

Measured: GI50

CCOc1ccc2nc(NC(=O)c3c/c(=N\NC(=O)C[N+](C)(C)C)c4ccc(O)cc4o3)sc2c1
5.93 µM: HCT-15
active: OVCAR-3 0.13 µM | SK-MEL-5 0.555 µM | M19-MEL 0.294 µM
inactive: SK-MEL-2 2.43 µM | SR 3.05 µM | OVCAR-8 2.14 µM | HCC 2998 7.53 µM | Malme-3M 1.28 µM | SNB-78 5 µM | M14 1.63 µM | UACC-257 1.49 µM | U-251 2.89 µM | NCI-H460 3.04 µM | OVCAR-4 1.74 µM | SW-620 2.19 µM | SNB-19 5.65 µM | HOP-18 2.06 µM | SK-OV-3 11.3 µM | UACC-62 1.65 µM | DLD-1 2.52 µM | MOLT-4 1.72 µM | SK-MEL-28 5.75 µM | HL-60 1.59 µM | DMS-114 1.91 µM | COLO 205 1.63 µM | HT-29 3.56 µM | SF-295 3.38 µM | SNB-75 1.52 µM | IGROV-1 2.65 µM | LOX IMVI 1.14 µM | SF-539 3.85 µM | A498 14.6 µM | 786-0 3.62 µM | CCRF-CEM 1.6 µM | EKVX 4.44 µM | K562 1.92 µM | XF498 2.83 µM | A549 2.76 µM | UO-31 11.8 µM | CAKI-1 6.04 µM | RXF 393 5.87 µM | LXFL 529 2.02 µM | SF-268 3.29 µM | TK-10 21.7 µM | SN12C 3.55 µM | KM12 5.28 µM | KM-20L2 3.21 µM | RPMI-8226 2.15 µM | OVCAR-5 3.37 µM | HOP-92 1.72 µM | NCI-H226 3.25 µM | DMS-273 3.34 µM | ACHN 4.52 µM | NCI-H23 1.59 µM | RXF 631 6.03 µM | HCT-116 3.4 µM | NCI-H522 1.95 µM

CC[C@H](C)[C@H]1NC(=O)C(C(C)=O)=C1O
79.8 µM: HCT-15
inactive: SK-MEL-2 95.3 µM | SR 58.3 µM | OVCAR-8 > 100 µM | HCC 2998 54 µM | Malme-3M > 100 µM | SNB-78 > 100 µM | M14 > 100 µM | UACC-257 51.6 µM | U-251 52.7 µM | NCI-H460 80 µM | OVCAR-4 95.9 µM | SW-620 21.4 µM | SNB-19 78.3 µM | HOP-18 58.1 µM | UACC-62 97.5 µM | DLD-1 70.3 µM | MOLT-4 > 100 µM | SK-MEL-28 64 µM | HL-60 99.8 µM | DMS-114 76.7 µM | COLO 205 > 100 µM | HT-29 > 100 µM | OVCAR-3 72.9 µM | SF-295 > 100 µM | SNB-75 91.2 µM | IGROV-1 > 100 µM | SK-MEL-5 98.9 µM | LOX IMVI 62.4 µM | SF-539 > 100 µM | A498 > 100 µM | 786-0 98.6 µM | CCRF-CEM 52.2 µM | EKVX > 100 µM | K562 > 100 µM | XF498 > 100 µM | A549 > 100 µM | UO-31 > 100 µM | CAKI-1 > 100 µM | RXF 393 23.3 µM | M19-MEL 71.3 µM | LXFL 529 66.5 µM | SF-268 55.2 µM | TK-10 > 100 µM | SN12C 83.6 µM | KM12 96.4 µM | KM-20L2 > 100 µM | OVCAR-5 > 100 µM | HOP-92 > 100 µM | NCI-H226 > 100 µM | DMS-273 > 100 µM | HOP-62 > 100 µM | ACHN > 100 µM | NCI-H23 > 100 µM | RXF 631 92.5 µM | HCT-116 51.9 µM | NCI-H522 88.5 µM
